According to patent US12686667B2, “Methods and compositions for gamma-glutamyl cycle modulation” (CANCER RESEARCH TECHNOLOGIES LLC, priority 2013, dated 2026):

How the values were obtained:
[1] = test system: Human Melanoma cells 624; assay: Survival of nude mice inoculated with human melanoma; format: in vivo, athymic nude mice; conditions: for survival of treated group: nude mice, 400 rads, Human Melanoma cells 624, 100 mg/kg I.P. every day, six days a week, followed up for 120 days, control: ten out of ten died
Procedure: In order to examine the survival rate of athymic nude mice, inoculated intravenously with tumors, one group of the inoculated mice was treated with BA-GGCI, and a second group of the inoculated mice were treated with placebo, and the effects of treatment with BA-GGCI and placebo were compared.
Two subgroups of nude mice were examined: a control group and an experimental group. The groups included a total of twenty athymic nude mice (ten control and ten experimental), each irradiated with 400 rads of radiation and inoculated with Human Melanoma cells 624 at 3.0×10,000,000 cells per mouse. Treatment of the experimental group with racemic BA-GGCI commenced at 24 hours after the inoculation. The treatment was administered intraperitoneally (I.P.) at a dose of 100 mg/kg in 2 cc of saline every day, six days a week. The control group received placebo (2 cc saline IP), every day, six days a week.
The subjects were followed up for 120 days.

[2] = test system: human prostate tumor cell line; assay: Nude mouse model inoculated with human prostate tumor cell line; racemic, L- and D-GGCI compared; format: in vivo, nude mice
Procedure: Relative activities of the exemplary enantiomeric GGCI compounds of this invention were compared. Conjugates of benzaldehyde, salicylaldehyde and para-methoxybenzaldehyde were prepared, using either enantiomeric L- or D-penicillamine as the second reactant. The efficacy of racemic BA-GGCI, racemic SA-GGCI and racemic PMB-GGCI in the treatment of human prostate cancer was tested using the nude mouse model as in Example 2, except that the nude mice were inoculated intravenously with a human prostate tumor cell line. One group of the inoculated mice was treated with the racemic BA-GGCI and a control group of the inoculated mice was treated with placebo, and the effects of treatment with GGCI and placebo were compared. Response to treatment was monitored by changes in [PSA].
The exemplary L- and D-enantiomer BA-GGCIs were prepared in accordance with synthetic scheme of FIG. 1 using L-penicillamine.

[3] = test system: patients with advanced prostate cancer; assay: Compassionate use treatment of patients with advanced prostate cancer; format: in vivo, human
Procedure: Two patients with advanced prostate cancer were treated under a compassionate use program with an exemplary GGCI
Racemic BA-GGCI was administered to two human subjects who were receiving hormonal therapy for 12 and 14 months respectively.
At the onset of the GGCI treatment, both patients were bedridden with PSA (Prostate Specific Antigen) values of 340 and 180 ng/mL respectively. Both subjects presented with multiple bone metastases, and agonizing pains. The GGCI treatment protocol comprised 600 mg of GGCI capsule 3 times/day (formulated for human based on less then 5% of the LD50 toxicity on mice).

[4] = test system: lung CA CRL5891; assay: Survival of nude mice inoculated with human lung cancer; format: in vivo, athymic nude mice; conditions: for survival of treated group: nude male mice, 400 rads, lung CA CRL5891, 100 mg/kg I.P. every day, six days a week, followed up for 120 days, control: eight of ten died
Procedure: In order to examine survival of athymic nude mice inoculated intravenously with tumors, one group of the inoculated mice was treated with racemic BA-GGCI, and a second group of the inoculated mice were treated with placebo, and the effects of treatment with BA-GGCI and placebo were compared.
Two subgroups of nude male mice where examined: A control group and an experimental group. The groups included twenty athymic nude mice (ten control and ten experimental) subjects, each irradiated with 400 rads of radiation and inoculated with lung CA CRL5891 at 3×10,000,000 cells per mouse. Interventional treatment was identical to the first study as above.
The subjects were followed up for 120 days. In the Control group, eight of ten subjects died. Two of the surviving mice developed a large tumor.

[5] = test system: tumor; assay: Anti-cancer activity of (L) versus (D) conformation compounds in animal models and compassionate use (summary statement); format: in vivo; conditions: animal models and compassionate use treatment of human subjects
Excerpt: However, in contrast to D-penicillamine, the L-penicillamine stereoisomer is toxic, and has not been approved as a drug. […] Moreover, when the inventors compared the relative activities, the (L) conformation compounds of this disclosure appeared to be at least 2× as active as the corresponding racemate, due to the improved stereospecificity in the enzymatic catalysis of 5-oxoproline by 5 oxoprolinase.

[6] = test system: Balb C Mice; assay: LD50 toxicity study on Balb C mice; format: in vivo
Procedure: (§1) LD50 data was measured, and exemplary gamma-glutamyl cycle inhibitor's toxicity study was conducted on Balb C Mice. A conjugate of L-penicillamine and methyl glyoxal (MGPA) was adminstered at about 4500 mg/kg ip, 5000 mg/kg oral. A conjugate of L-penicillamine and para-methoxyphenyl (PMPA) was administered at 5250 mg/kg ip, 5500 mg/kg oral; and a conjugate of L-penicillamine and citronellal (CNPA) was administered at 3250 mg/kg ip, 4500 mg/kg oral.

[7] = test system: CD1 mice; assay: Sub-acute (4 weeks) per os (via food) toxicity to mice; format: in vivo
Excerpt: Sample: L-Thiazolidine-di-methyl-carboxylic acid: “L-BAPA” powder was mixed in the food (pellets).
Subjects were examined for: Sub-acute (4 weeks) per os (via food) toxicity of L-BAPA to mice.
Forty females and forty male CD1 mice, 8-10 weeks old, were housed 5 per cage (milipore filtered top cages), half of them used as controls, receiving normal mouse diet (prepared at the breeding center food plant). The other half were the experimental group and received same food composition in which 0.6 g L-Thiazolidine-di-methyl-carboxylic acid in kg food was mixed and pelleted in smaller pellet machine. This food contains 12% humidity, as compared with 6% humidity of the control diet. The animals were fed ad libitum. All animals were weighed weekly and food consumption was recorded. Possible clinical or pharmaceutical effects were checked daily. After 4 weeks, the mice were put into metabolic cages for 24 hours, their urine was collected, and then the animals were bled before sacrificing. The blood was analyzed and bone marrow smears were prepared for differential count.
The reason for putting […] in a group was to assure enough blood and urine for analysis, so all the blood clinical chemistry and urinalysis are of a pool of 2 mice each. All other results are individual results, performed randomly on one of each 2 mouse group.
The following organs were examined histologically: adrenals, brain, eye, gonads, heart, intestines (colon, caecum, duodenum, ileum, rectum) kidneys, liver, lungs, lymph nodes (mesenterial and inguinal) mammary gland, mediastinum, esophagus, pancreas, pituitary, salivary gland, skeletal muscle, skin, spinal cord, spleen, stomach, thyroid, urinary bladder and uterus. The organs were fixed in Bouin's solution and stained with hematoxylin-eosin-phosphomolybdic-acid light green stain. Weights for the adrenals, gonads, kidneys, liver and pituitary were recorded and the ratio organ weight/body weight was calculated.
The following lab studies were performed:
Hematology: Hemoglobin, hematocrit, erythrocyte count, leukocyte count.
Clinical chemistry: alkaline phosphatase, blood urea nitrogen, serum glutamic, pyruvic transaminase, blood sugar.
Urinalysis: appearance occult blood, protein Ph, bilirubin, ketones, glucose, nitrites, urobilinogen.

[8] = test system: B6C3F1 Mice; assay: LD50 determination in B6C3F1 mice; format: in vivo; design: 1/10 LD50: unit: mg/kg/inj
Excerpt: Summary of LD50 Determination with a conjugate of L-penicillamine and salicylaldehyde (L-SAPA), a conjugate of L-penicillamine and benzaldehyde (L-BAPA), a conjugate of L-penicillamine and pyruvic aldehyde (L-PAPA) and a conjugate of L-penicillamine and glutaric dialdehyde (L-GAPA) in B6C3F1 Mice.

[9] = LD50 toxicity study on Balb C mice; format: in vivo; conditions: mouse, in vivo
Procedure: as §1

[10] = subject #1, 600 mg capsule 3 times/day
[11] = subject #2, 600 mg capsule 3 times/day
[12] = CD1 mice, 0.6 g in kg food, 4 weeks
[13] = CD1 mice, 0.6 g in kg food, 4 weeks, versus control

CC1(C)SC(c2ccccc2)NC1C(=O)O (racemic) [racemic BA-GGCI]
tumor development in treated group ([1]; Human Melanoma cells 624 nude mice, 100 mg/kg I.P., after stopping the treatment): Two of the subjects developed small tumors after stopping the treatment | survival of treated group [1]: ten out of ten subjects in the treated group were all alive | survival rate versus control group ([2]; nude mice inoculated intravenously with human prostate tumor cell line, treatment as in Example 2, response monitored by [PSA]): significantly higher survival rate than the control group | PSA value after treatment (dropped from 340) [3, 10]: 18 units | time to return to regular activities [3, 10]: within a month | time until pain level subsided [3, 10]: ≤ 10 days | PSA level after continued drop ([3]; subject #1, 600 mg capsule 3 times/day, later): 5 units | time subject felt normal ([3]; subject #1, before they eventually passed away): 28 months | bone CAT scan ([3]; subject #1, multiple bone metastases at onset): substantial remission | survival after initiation of the treatment (still alive, feeling well) ([3]; subject #2): ≥ 36 months | PSA after treatment (180 ng/mL at onset) [3, 11]: 16 units | time to return to normal activities [3, 11]: 2-3 weeks | time until pains subsided [3, 11]: 7 days | detectable tumor in treated group ([4]; lung CA CRL5891 nude mice, 100 mg/kg I.P., 120 days): none with detectable tumor | survival of treated group [4]: all mice remained alive

COc1ccc(C2N[C@@H](C(=O)O)C(C)(C)S2)cc1 (mixture of isomers) [racemic PMB-GGCI, 2-imino-3-p-methoxybenzyl-4 sulfanyl-5 dimethyl 1-carboxylic acid]
survival of treated group [1]: results similar to those obtained with racemic BA-GGCI | survival of treated group [4]: results similar to those obtained with racemic BA-GGCI

CC1(C)SC(c2ccccc2O)NC1C(=O)O (racemic) [racemic SA-GGCI]
survival of treated group [1]: results similar to those obtained with racemic BA-GGCI | subjective well-being of patients ([3]; human patients, compared with BA-GGCI): subjectively felt better than patients to whom BA-GGCI was administered | overall treatment result in patients ([3]; human patients, compared with BA-GGCI treatment): results similar to those obtained with B-GGCI treatment | survival of treated group [4]: results similar to those obtained with racemic BA-GGCI

COc1ccc(C2NC(C(=O)O)C(C)(C)S2)cc1 (stereo not drawn) [(D) stereoisomer]
anti-tumor / anti-cancer activity [5]: no activity

CC(C)=CCCC(C)CC1NC(C(=O)O)C(C)(C)S1 (stereo not drawn) [CNPA]
LD50 ([6]; ip): 3250 mg/kg | LD50 ([6]; oral): 4500 mg/kg

CC1(C)SC(c2ccccc2)N[C@H]1C(=O)O (stereo partly drawn) [L-BAPA]
clinical symptoms, daily observation ([7]; CD1 mice, 0.6 g in kg food ad libitum, 4 weeks): no clinical or other effect could be observed | Blood cell analysis and differential count [7, 12]: All values are within the normal range and no significant difference between the control and the experimental groups is noted | Bone marrow differential count [7, 12]: All values are within the normal range and no significant difference between the control and the experimental groups is noted | Histopathology ([7]; CD1 mice, 0.6 g in kg food, 4 weeks, 10 male and 10 females per group, thirty-one organs): No other pathological or other changes could be observed | Food consumption ([7]; CD1 mice, 0.6 g in kg food, 4 weeks, experimental food 12% humidity versus 6% control): more L-BAPA containing experimental food was consumed by the experimental group then normal food by the control | Blood clinical chemistry and urinalysis ([7]; CD1 mice, 0.6 g in kg food, 4 weeks, pool of 2 mice each): All values are within the normal range and no significant difference between the control and the experimental groups is noted | Body weight [7, 13]: no significant difference between the experimental group and the control group | Organ weight and ratio organ/body weight [7, 13]: No significant difference between the experimental and the control group is noted | clinical or pathological changes (conclusion) ([7]; mixed in the food (0.6 g in kg food), fed ad libitum for 4 weeks): does not produce any clinical or pathological changes to mice | activity compared to the corresponding racemate ([2]; (L) compound versus racemic mixture): at least twice as active as the corresponding racemic mixture | 1/10 LD50 ([8]; Schedule Day 1, Route ip): 88.4 | Calculated LD50 mg/kg/inj. ([8]; Schedule Day 1, Route ip): 884 mg/kg/inj. | 1/10 LD50 ([8]; Schedule Day 1, Route oral): 355 | Calculated LD50 mg/kg/inj. ([8]; Schedule Day 1, Route oral): 3553 mg/kg/inj. | 1/10 LD50 ([8]; Schedule Day 1-5, Route ip): 88.4 | Calculated LD50 mg/kg/inj. ([8]; Schedule Day 1-5, Route ip): 884 mg/kg/inj. | 1/10 LD50 ([8]; Schedule Day 1-5, Route oral): 216 | Calculated LD50 mg/kg/inj. ([8]; Schedule Day 1-5, Route oral): 2158 mg/kg/inj.

CC1(C)SC(CCCC=O)N[C@H]1C(=O)O (stereo partly drawn) [L-GAPA]
1/10 LD50 ([8]; Schedule Day 1, Route ip): 375 | Calculated LD50 mg/kg/inj. ([8]; Schedule Day 1, Route ip): 3749 mg/kg/inj. | 1/10 LD50 ([8]; Schedule Day 1, Route oral): 500 | Calculated LD50 mg/kg/inj. ([8]; Schedule Day 1, Route oral): >5000 mg/kg/inj. | 1/10 LD50 ([8]; Schedule Day 1-5, Route ip): 169 | Calculated LD50 mg/kg/inj. ([8]; Schedule Day 1-5, Route ip): 1690 mg/kg/inj. | 1/10 LD50 ([8]; Schedule Day 1-5, Route oral): 500 | Calculated LD50 mg/kg/inj. ([8]; Schedule Day 1-5, Route oral): >5000 mg/kg/inj.

CC(=O)C1N[C@@H](C(=O)O)C(C)(C)S1 (stereo partly drawn) [L-PAPA]
1/10 LD50 ([8]; Schedule Day 1, Route ip): 500 | Calculated LD50 mg/kg/inj. ([8]; Schedule Day 1, Route ip): >5000 mg/kg/inj. | 1/10 LD50 ([8]; Schedule Day 1, Route oral): 500 | Calculated LD50 mg/kg/inj. ([8]; Schedule Day 1, Route oral): >5000 mg/kg/inj. | 1/10 LD50 ([8]; Schedule Day 1-5, Route ip): 277 | Calculated LD50 mg/kg/inj. ([8]; Schedule Day 1-5, Route ip): 2771 mg/kg/inj. | 1/10 LD50 ([8]; Schedule Day 1-5, Route oral): 500 | Calculated LD50 mg/kg/inj. ([8]; Schedule Day 1-5, Route oral): >5000 mg/kg/inj.

CC(=O)C1NC(C(=O)O)C(C)(C)S1 (stereo not drawn) [MGPA]
LD50 ([6]; ip): about 4500 mg/kg | LD50 ([6]; oral): 5000 mg/kg

COc1ccc(C2N[C@@H](C(=O)O)C(C)(C)S2)cc1 (stereo partly drawn) [PMPA]
LD50 ([9]; 5250 mg/kg, ip): 5250 mg/kg | LD50 ([9]; 5500 mg/kg, oral): 5500 mg/kg | anti-tumor / anti-cancer activity [5]: potent anti-tumor activity
